Data reported in patent US6953800B2, “Use of selective antagonists of the α1B-adrenergic receptor for improvement of sexual dysfunction” (Recordati S.A. Chemical, priority 1999, dated 2005).
Where “and” joins values, the source holds several entries; their conditions need not be identical. Equal values may be shown once.

Tests used:
[1] = target: T1, bovine α1a-adrenoceptor (Bos taurus, UniProt P18130); test: [3H]Prazosin binding, bovine α1a-adrenoceptor in COS-7 cell membranes; details: bovine α1a, COS-7 membranes; read-out: Affinity (Ki) α1a, animal cloned receptors
T1 construct: expressed in transfected cells; host or cells: COS-7 cells (transient), membranes
T1 sequence (P18130 1-466): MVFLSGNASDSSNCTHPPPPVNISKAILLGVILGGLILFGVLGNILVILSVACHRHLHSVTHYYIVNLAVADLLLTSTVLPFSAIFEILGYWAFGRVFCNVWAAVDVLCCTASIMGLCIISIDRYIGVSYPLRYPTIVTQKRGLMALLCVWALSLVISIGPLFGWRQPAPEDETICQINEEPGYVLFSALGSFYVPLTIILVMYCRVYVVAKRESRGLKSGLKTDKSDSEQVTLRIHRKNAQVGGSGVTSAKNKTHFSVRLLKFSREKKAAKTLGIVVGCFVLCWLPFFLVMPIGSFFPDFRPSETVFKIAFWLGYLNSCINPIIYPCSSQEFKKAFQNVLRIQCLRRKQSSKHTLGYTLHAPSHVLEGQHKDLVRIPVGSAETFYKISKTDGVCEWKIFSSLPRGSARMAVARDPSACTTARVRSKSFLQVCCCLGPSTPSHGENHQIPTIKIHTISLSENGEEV
Method: (§1) The incubation was stopped by addition of ice-cold Tris buffer and rapid filtration through 0.2% polyethyleneimine pretreated Whatman GF/B or Schleicher & Schuell GF52 filters.
(§2) Data are expressed as mean Ki. All patents and other references cited herein are incorporated by reference in their entirety.

[2] = target: T2, hamster α1b-adrenoceptor (Mesocricetus auratus, UniProt P18841); test: [3H]Prazosin binding, hamster α1b-adrenoceptor in COS-7 cell membranes; details: COS-7 membranes, read-out: Affinity (Ki) α1b, animal cloned receptors
T2 construct: expressed in transfected cells; host or cells: COS-7 cells (transient), membranes
T2 sequence (P18841 1-515): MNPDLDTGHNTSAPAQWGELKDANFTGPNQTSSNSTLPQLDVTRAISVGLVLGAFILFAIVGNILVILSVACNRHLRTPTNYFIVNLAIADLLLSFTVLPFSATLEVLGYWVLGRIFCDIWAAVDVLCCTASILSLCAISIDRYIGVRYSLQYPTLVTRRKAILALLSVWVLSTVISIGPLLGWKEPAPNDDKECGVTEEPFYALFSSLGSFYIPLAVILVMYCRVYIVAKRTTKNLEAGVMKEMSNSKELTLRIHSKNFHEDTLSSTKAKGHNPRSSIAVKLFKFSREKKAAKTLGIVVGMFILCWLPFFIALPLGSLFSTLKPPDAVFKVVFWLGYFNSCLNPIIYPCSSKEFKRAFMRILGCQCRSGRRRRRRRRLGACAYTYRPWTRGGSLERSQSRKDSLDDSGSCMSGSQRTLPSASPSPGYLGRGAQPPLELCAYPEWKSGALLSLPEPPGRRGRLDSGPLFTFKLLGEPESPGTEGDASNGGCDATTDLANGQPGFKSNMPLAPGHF
Method: as §1, §2

[3] = target: T3, rat α1d-adrenoceptor (Rattus norvegicus, UniProt P23944); test: [3H]Prazosin binding, rat α1d-adrenoceptor in COS-7 cell membranes; details: COS-7 membranes, read-out: Affinity (Ki) α1d, animal cloned receptors
T3 construct: expressed in transfected cells; host or cells: COS-7 cells (transient), membranes
T3 sequence (P23944 1-561): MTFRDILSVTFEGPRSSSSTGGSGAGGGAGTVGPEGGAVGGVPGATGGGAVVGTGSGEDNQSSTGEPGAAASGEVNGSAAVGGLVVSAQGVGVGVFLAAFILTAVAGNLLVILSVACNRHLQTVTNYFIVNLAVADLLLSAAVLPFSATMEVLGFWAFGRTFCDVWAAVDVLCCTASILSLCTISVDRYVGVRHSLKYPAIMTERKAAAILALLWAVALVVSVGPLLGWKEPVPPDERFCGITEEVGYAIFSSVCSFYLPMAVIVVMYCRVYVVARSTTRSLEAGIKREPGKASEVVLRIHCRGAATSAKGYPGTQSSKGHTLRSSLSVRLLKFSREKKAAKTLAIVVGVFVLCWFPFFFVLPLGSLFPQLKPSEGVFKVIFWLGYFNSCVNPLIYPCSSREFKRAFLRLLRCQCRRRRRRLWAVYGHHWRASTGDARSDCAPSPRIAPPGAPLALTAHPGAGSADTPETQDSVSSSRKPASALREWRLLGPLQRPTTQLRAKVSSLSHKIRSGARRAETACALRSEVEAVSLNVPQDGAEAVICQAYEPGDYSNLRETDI
Method: as §1, §2

[4] = system: anaesthetised rats; test: Intracavernous and blood pressure recording in rats; format: in vivo, rat
Method: Rats were anaesthetised by an intraperitoneal injection of urethane (1.5 g/kg in sterile saline) and placed on an homeothermic blanket. Their temperature was maintained at 37° C. Rats were tracheotomized to facilitate spontaneous breathing and to prevent aspiration of saliva. A catheter filled with heparinized saline (25 IU/ml) was placed into the carotid to record mean blood pressure (BP, mmHg). The penis was desheathed and the corpora cavernosa were exposed. A 25-gauge stainless-steel needle was inserted into one corpus cavernosum to record intracavernous pressure (ICP in mmHg). […] Pressure catheters were connected to pressure transducers (Model 750, Elcomatic Ltd, Glasgow, UK).
Following a resting period of 10 minutes, the compound solvent was delivered intracavernously (50 μl/injection). Then, increasing doses of one compound were injected every ten minutes by the same route. Five injections (one solvent plus four cumulative doses) were performed in each rat, and five rats were used for the study of one compound. For each injection and for each compound, mean BP averaged over the ten minutes following the injection was measured. The maximal ICP value reached during the ten-minute period following an injection was also recorded. In these experiments, all the compounds tested were dissolved and diluted in propylene glycol-Sorensen solvent.

[5] = system: anaesthetised dogs; test: Intracavernous and blood pressure recording in dogs
Method: Male beagle dogs were anaesthetised with pentobarbital sodium (i.v. Nembutal, 35 mg/kg for induction and 4 mg/kg/h for maintenance) and intubated with an endotracheal cuffed tube to facilitate free ventilation. A collateral of the left femoral vein was cannulated with a PE catheter for infusion of the anaesthetic. Systemic BP was monitored via a Mikro-tip 6F (Millar Instruments) pressure transducer introduced into the aortic arch through the right common carotid artery. ICP was measured by means of a 20-gauge needle placed into the left or right corpus cavernosum and the same needle was used for intracavernous injection of the drugs. The needle was attached to a catheter filled with heparinized saline (25 IU/mL). […] The compounds to be tested were injected intracavernously in a volume of 0.5 ml and, after each injection, the needle was flushed with 0.5 ml of saline. The vehicles for compound dissolution were tested before the first dose of each drug. The compounds were administered in a cumulative way, with a 30-minute interval between doses. ICP (mmHg) was measured at the peak effect after the administration of the compounds. The duration of tumescence (DT, min) was measured from the beginning of the rise of ICP over its basal value up to the return to baseline. The systolic blood pressure and diastolic blood pressure (mmHg) were measured at the peak effect after the administration of compounds, in order to evaluate the effects of the compounds on BP independently from the effects on ICP. Moreover, the systolic blood pressure was measured at the time of maximal ICP value after intracavernous injection, to evaluate the ICP/BP ratios. […] The data were reported as mean ±s.e. of the mean, or percent variation (±s.e.) of the basal values.

COc1cc2nc(N3CCN(C(=O)COc4c(OC)cccc4C(C)C)CC3)nc(N)c2cc1OC.Cl [Compound A, 4-Amino-6,7-dimethoxy-2-[4-[(2-isopropyl-6-methoxyphenoxy)acetyl]-1-piperazinyl]quinazoline hydrochloride]
Ki [1]: 7.5 nM
Ki [2]: 0.45 nM
Ki [3]: 10.3 nM
BP ([4]; 10 μg/kg intracavernous): 91.3 ± 9.4 mmHg
ICP ([4]; 10 μg/kg intracavernous): 36.8 ± 8.7 mmHg
BP ([4]; 30 μg/kg intracavernous): 82.7 ± 11.0 mmHg
ICP ([4]; 30 μg/kg intracavernous): 37.6 ± 10.1 mmHg
BP ([4]; 100 μg/kg intracavernous): 74.8 ± 9.3 mmHg
ICP ([4]; 100 μg/kg intracavernous): 38.7 ± 12.3 mmHg
BP ([4]; 300 μg/kg intracavernous): 72.5 ± 5.6 mmHg
ICP ([4]; 300 μg/kg intracavernous, hydrochloride): 50.6 mmHg and 50.6 ± 13.7 mmHg
effect on ICP (in words) ([4]; intracavernous injection): dose-dependently increased ICP
decrease of blood pressure accompanying the ICP/BP increase (FIG. 1) ([4]; intracavernous, 10-300 μg): ≤ 20%
decrease of BP ([4]; intracavernous, over the dose range up to 300 μg/kg): about 30%
DBP ([5]; 3 μg/kg intracavernous): 116.0 ± 5.9 mmHg
DT (duration of tumescence) ([5]; 3 μg/kg intracavernous): 1.2 ± 0.2 min
ICP ([5]; 3 μg/kg intracavernous): 26.7 ± 8.7 mmHg
SBP ([5]; 3 μg/kg intracavernous): 155.3 ± 5.5 mmHg
SBPICP (SBP at the time of maximal ICP value) ([5]; 3 μg/kg intracavernous): 156.7 ± 6.8 mmHg
increase of ICP in comparison with basal ICP values ([5]; 3 μg/kg intracavernous): 12 mmHg
DBP ([5]; 10 μg/kg intracavernous): 120.0 ± 5.9 mmHg
DT (duration of tumescence) ([5]; 10 μg/kg intracavernous): 15.0 ± 8.4 min
ICP ([5]; 10 μg/kg intracavernous): 75.0 ± 32.4 mmHg
SBP ([5]; 10 μg/kg intracavernous): 157.5 ± 6.6 mmHg
SBPICP (SBP at the time of maximal ICP value) ([5]; 10 μg/kg intracavernous): 158.5 ± 7.4 mmHg
DBP ([5]; 30 μg/kg intracavernous): 117.5 ± 6.5 mmHg
DT (duration of tumescence) ([5]; 30 μg/kg intracavernous): 8.3 ± 3.2 min
ICP ([5]; 30 μg/kg intracavernous): 91.5 ± 26.9 mmHg
SBP ([5]; 30 μg/kg intracavernous): 154.0 ± 6.6 mmHg
SBPICP (SBP at the time of maximal ICP value) ([5]; 30 μg/kg intracavernous): 156.5 ± 5.9 mmHg
DBP ([5]; 100 μg/kg intracavernous): 113.0 ± 7.3 mmHg
DT (duration of tumescence) ([5]; 100 μg/kg intracavernous): 13.7 ± 5.6 min
ICP ([5]; 100 μg/kg intracavernous): 95.0 ± 23.3 mmHg
SBP ([5]; 100 μg/kg intracavernous): 147.5 ± 7.6 mmHg
SBPICP (SBP at the time of maximal ICP value) ([5]; 100 μg/kg intracavernous): 148.5 ± 6.0 mmHg
DBP ([5]; 300 μg/kg intracavernous): 107.5 ± 7.4 mmHg
ICP ([5]; 300 μg/kg intracavernous): 111.0 ± 10.9 mmHg
SBP ([5]; 300 μg/kg intracavernous): 140.0 ± 7.4 mmHg
SBPICP (SBP at the time of maximal ICP value) ([5]; 300 μg/kg intracavernous): 142.0 ± 6.5 mmHg
increase of ICP in comparison with basal ICP values ([5]; 300 μg/kg intracavernous): 96.5 mmHg
duration of action compared with reference compounds ([5]; Compound B at the highest dose tested): higher than that of the reference compounds tested
hypotension computed on diastolic blood pressure (change) ([5]; dose-dependent over 3-300 μg/kg): −10 to −19 mmHg
decrease of blood pressure accompanying the ICP/BP increase (FIG. 2) ([5]; intracavernous): ≤ 20%
effect on ICP (in words) ([5]; intracavernous injection): dose-dependently increased ICP
